{"source": "patent US9029325B2", "about": "“Amylin analogues and pharmaceutical compositions thereof” (Novo Nordisk A/S, priority 2011, dated 2015)", "assay": "Assay (I) efficacy testing on appetite (food intake), ad libitum fed rat model", "type": "in vivo, Sprague Dawley (SD) rats", "details": "3 nmol/kg", "outline": "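Single ip, po or sc dosing (0.01-3 mg/kg, by body weight) at the start of the dark phase, in individually housed Sprague Dawley rats of 200-250 g with free food and water. Intake was logged per rat each hour to 7 h, then at 24 h (occasionally 48 h), against a vehicle group; outliers removed by Grubbs test.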", "note": "Starred links: 1 amine or outer side, 2 acyl side, 3 side chain; linkers in the order of their positions; H or OH if unused. Positions of bridges follow the written chain, without caps; N, C: chain ends. Residues, ends and D or L forms follow the SMILES beside them. *: point of attachment. C20 diacid = O=C(O)CCCCCCCCCCCCCCCCCCC(=O)*; γGlu = O=C(O)[C@H](CCC(=O)[*:2])N[*:1]"}
{"compound": "CC[C@H](C)[C@H](NC(=O)[C@@H]1CCCN1C(=O)CNC(=O)[C@H](Cc1ccccc1)NC(=O)[C@H](CC(N)=O)NC(=O)[C@H](CC(N)=O)NC(=O)[C@H](CO)NC(=O)[C@H](CO)NC(=O)[C@H](Cc1c[nH]cn1)NC(=O)[C@H](Cc1c[nH]cn1)NC(=O)[C@H](CC(C)C)NC(=O)[C@H](Cc1ccccc1)NC(=O)[C@H](CCC(=O)O)NC(=O)[C@H](C)NC(=O)[C@H](CC(C)C)NC(=O)[C@H](CCCNC(=N)N)NC(=O)[C@H](CCC(N)=O)NC(=O)[C@@H](NC(=O)[C@H](C)NC(=O)[C@@H]1CSSC[C@H](NC(=O)[C@H](Cc2c[nH]cn2)NC(=O)[C@H](Cc2c[nH]cn2)NC(=O)CC[C@H](NC(=O)CCCCCCCCCCCCCCCCCCC(=O)O)C(=O)O)C(=O)N[C@@H](CC(N)=O)C(=O)N[C@@H]([C@@H](C)O)C(=O)N[C@@H](C)C(=O)N[C@@H]([C@@H](C)O)C(=O)N1)[C@@H](C)O)C(=O)N[C@@H](CC(C)C)C(=O)N1CCC[C@H]1C(=O)N1CCC[C@H]1C(=O)N[C@H](C(=O)N[C@@H](CC(N)=O)C(=O)N[C@H](C(=O)NCC(=O)N[C@@H](CO)C(=O)N[C@@H](CC(N)=O)C(=O)N[C@H](C(=O)N[C@@H](Cc1ccc(O)cc1)C(N)=O)[C@@H](C)O)C(C)C)[C@@H](C)O", "note": "[compound 17] ({C20 diacid-γGlu}-HHCNTATCATQRLAEFLHHSSNNFGPILPPTNVGSNTY-NH2; disulfide 3-8 (inferred); C-terminus assumed)", "values": [{"measurement": "Food intake reduction 0-24 h 3 nmol/kg (%)", "result": 40, "unit": "%"}, {"measurement": "Food intake reduction 24-48 h 3 nmol/kg (%)", "result": 22, "unit": "%"}]}
{"compound": "CC[C@H](C)[C@H](NC(=O)[C@@H]1CCCN1C(=O)CNC(=O)[C@H](Cc1ccccc1)NC(=O)[C@H](CC(N)=O)NC(=O)[C@H](CC(N)=O)NC(=O)[C@H](CO)NC(=O)[C@H](CO)NC(=O)[C@H](Cc1c[nH]cn1)NC(=O)[C@H](Cc1c[nH]cn1)NC(=O)[C@H](CC(C)C)NC(=O)[C@H](Cc1ccccc1)NC(=O)[C@H](CCC(=O)O)NC(=O)[C@H](C)NC(=O)[C@H](CC(C)C)NC(=O)[C@H](CCCNC(=N)N)NC(=O)[C@H](CCC(N)=O)NC(=O)[C@@H](NC(=O)[C@H](C)NC(=O)[C@@H]1CSSC[C@H](NC(=O)[C@H](Cc2c[nH]cn2)NC(=O)CC[C@H](NC(=O)CCCCCCCCCCCCCCCCCCC(=O)O)C(=O)O)C(=O)N[C@@H](CC(N)=O)C(=O)N[C@@H]([C@@H](C)O)C(=O)N[C@@H](C)C(=O)N[C@@H]([C@@H](C)O)C(=O)N1)[C@@H](C)O)C(=O)N[C@@H](CC(C)C)C(=O)N1CCC[C@H]1C(=O)N1CCC[C@H]1C(=O)N[C@H](C(=O)N[C@@H](CC(N)=O)C(=O)N[C@H](C(=O)NCC(=O)N[C@@H](CO)C(=O)N[C@@H](CC(N)=O)C(=O)N[C@H](C(=O)N[C@@H](Cc1ccc(O)cc1)C(N)=O)[C@@H](C)O)C(C)C)[C@@H](C)O", "note": "[compound 18] ({C20 diacid-γGlu}-HCNTATCATQRLAEFLHHSSNNFGPILPPTNVGSNTY-NH2; disulfide 2-7)", "values": [{"measurement": "Food intake reduction 0-24 h 3 nmol/kg (%)", "result": 40, "unit": "%"}, {"measurement": "Food intake reduction 24-48 h 3 nmol/kg (%)", "result": 32, "unit": "%"}]}
{"compound": "CC[C@H](C)[C@H](NC(=O)[C@@H]1CCCN1C(=O)CNC(=O)[C@H](Cc1ccccc1)NC(=O)[C@H](CC(N)=O)NC(=O)[C@H](CC(N)=O)NC(=O)[C@H](CO)NC(=O)[C@H](CO)NC(=O)[C@H](Cc1c[nH]cn1)NC(=O)[C@H](Cc1c[nH]cn1)NC(=O)[C@H](CC(C)C)NC(=O)[C@H](Cc1ccccc1)NC(=O)[C@H](CCC(=O)O)NC(=O)[C@H](C)NC(=O)[C@H](CC(C)C)NC(=O)[C@H](CCCNC(=N)N)NC(=O)[C@H](CCC(N)=O)NC(=O)[C@@H](NC(=O)[C@H](C)NC(=O)[C@@H]1CSSC[C@H](NC(=O)[C@H](Cc2c[nH]cn2)NC(=O)[C@H](Cc2c[nH]cn2)NC(=O)[C@H](Cc2c[nH]cn2)NC(=O)CC[C@H](NC(=O)CCCCCCCCCCCCCCCCCCC(=O)O)C(=O)O)C(=O)N[C@@H](CCCNC(=N)N)C(=O)N[C@@H]([C@@H](C)O)C(=O)N[C@@H](C)C(=O)N[C@@H]([C@@H](C)O)C(=O)N1)[C@@H](C)O)C(=O)N[C@@H](CC(C)C)C(=O)N1CCC[C@H]1C(=O)N1CCC[C@H]1C(=O)N[C@H](C(=O)N[C@@H](CC(N)=O)C(=O)N[C@H](C(=O)NCC(=O)N[C@@H](CO)C(=O)N[C@@H](CC(N)=O)C(=O)N[C@H](C(=O)N[C@@H](Cc1ccc(O)cc1)C(N)=O)[C@@H](C)O)C(C)C)[C@@H](C)O", "note": "[compound 22] ({C20 diacid-γGlu}-HHHCRTATCATQRLAEFLHHSSNNFGPILPPTNVGSNTY-NH2; disulfide 4-9 (inferred); C-terminus assumed)", "values": [{"measurement": "Food intake reduction 0-24 h 3 nmol/kg (%)", "result": 26, "unit": "%"}, {"measurement": "Food intake reduction 24-48 h 3 nmol/kg (%)", "result": 5, "unit": "%"}]}
{"compound": "CC[C@H](C)[C@H](NC(=O)[C@@H]1CCCN1C(=O)CNC(=O)[C@H](Cc1ccccc1)NC(=O)[C@H](CC(N)=O)NC(=O)[C@H](CC(N)=O)NC(=O)[C@H](CO)NC(=O)[C@H](CO)NC(=O)[C@H](Cc1c[nH]cn1)NC(=O)[C@H](Cc1c[nH]cn1)NC(=O)[C@H](CC(C)C)NC(=O)[C@H](Cc1ccccc1)NC(=O)[C@H](CCC(=O)O)NC(=O)[C@H](C)NC(=O)[C@H](CC(C)C)NC(=O)[C@H](CCCNC(=N)N)NC(=O)[C@H](CCC(N)=O)NC(=O)[C@@H](NC(=O)[C@H](C)NC(=O)[C@@H]1CSSC[C@H](NC(=O)[C@H](CCCCN)NC(=O)[C@H](CCC(=O)O)NC(=O)CC[C@H](NC(=O)CCCCCCCCCCCCCCCCCCC(=O)O)C(=O)O)C(=O)N[C@@H](CC(N)=O)C(=O)N[C@@H]([C@@H](C)O)C(=O)N[C@@H](C)C(=O)N[C@@H]([C@@H](C)O)C(=O)N1)[C@@H](C)O)C(=O)N[C@@H](CC(C)C)C(=O)N1CCC[C@H]1C(=O)N1CCC[C@H]1C(=O)N[C@H](C(=O)N[C@@H](CC(N)=O)C(=O)N[C@H](C(=O)NCC(=O)N[C@@H](CO)C(=O)N[C@@H](CC(N)=O)C(=O)N[C@H](C(=O)N[C@@H](Cc1ccc(O)cc1)C(N)=O)[C@@H](C)O)C(C)C)[C@@H](C)O", "note": "[compound 26] ({C20 diacid-γGlu}-EKCNTATCATQRLAEFLHHSSNNFGPILPPTNVGSNTY-NH2; disulfide 3-8)", "values": [{"measurement": "Food intake reduction 0-24 h 3 nmol/kg (%)", "result": 46, "unit": "%"}, {"measurement": "Food intake reduction 24-48 h 3 nmol/kg (%)", "result": 39, "unit": "%"}]}
{"compound": "CC[C@H](C)[C@H](NC(=O)[C@@H]1CCCN1C(=O)CNC(=O)[C@H](Cc1ccccc1)NC(=O)[C@H](CC(N)=O)NC(=O)[C@H](CC(N)=O)NC(=O)[C@H](CO)NC(=O)[C@H](CO)NC(=O)[C@H](Cc1c[nH]cn1)NC(=O)[C@H](Cc1c[nH]cn1)NC(=O)[C@H](CC(C)C)NC(=O)[C@H](Cc1ccccc1)NC(=O)[C@H](CCC(=O)O)NC(=O)[C@H](C)NC(=O)[C@H](CC(C)C)NC(=O)[C@H](CCCNC(=N)N)NC(=O)[C@H](CCC(N)=O)NC(=O)[C@@H](NC(=O)[C@H](C)NC(=O)[C@@H]1CSSC[C@H](NC(=O)CC[C@H](NC(=O)CCCCCCCCCCCCCCCCCCC(=O)O)C(=O)O)C(=O)N[C@@H](CC(N)=O)C(=O)N[C@@H]([C@@H](C)O)C(=O)N[C@@H](C)C(=O)N[C@@H]([C@@H](C)O)C(=O)N1)[C@@H](C)O)C(=O)N[C@@H](CC(C)C)C(=O)N1CCC[C@H]1C(=O)N1CCC[C@H]1C(=O)N[C@H](C(=O)N[C@@H](CC(N)=O)C(=O)N[C@H](C(=O)NCC(=O)N[C@@H](CO)C(=O)N[C@@H](CC(N)=O)C(=O)N[C@H](C(=O)N[C@@H](Cc1ccc(O)cc1)C(N)=O)[C@@H](C)O)C(C)C)[C@@H](C)O", "note": "[compound 28] ({C20 diacid-γGlu}-CNTATCATQRLAEFLHHSSNNFGPILPPTNVGSNTY-NH2; disulfide 1-6 (inferred); C-terminus assumed)", "values": [{"measurement": "Food intake reduction 0-24 h 3 nmol/kg (%)", "result": 39, "unit": "%"}, {"measurement": "Food intake reduction 24-48 h 3 nmol/kg (%)", "result": 36, "unit": "%"}]}
